{
  "source": "paper PMC4222603",
  "about": "“Dual inhibition of HIV-1 replication by integrase-LEDGF allosteric inhibitors is predominant at the post-integration stage” (Retrovirology, 2013)",
  "key": {"[1]": {"test_system": "NL4-3 RT K103N, Y181C", "experiment": "Antiviral assay on NNRTI-resistant virus", "type": "cell-based, HIV-1", "settings": "ratio EC50 resistant virus / wt virus"}, "[2]": {"test_system": "HIV-1 proviral DNA (late reverse transcription product, integrated DNA)", "experiment": "Quantification of viral cDNA by real-time PCR in infected MT4 cells", "type": "cell-based", "description": "Prior to infection, viral stocks were treated 1 h at 37°C with 100 U per mL of DNAseI (Roche Applied Science). MT4 cells (6x10^6) were infected with virus at MOI = 0.001. At 7 h, 24 h and 48 h post-infection, cells were harvested, washed twice in PBS and DNA was extracted using the QIAamp Blood DNA Minikit (Qiagen). Quantifications of viral DNA were performed by real-time PCR using the LightCycler 480 system (Roche Applied Science). Primers, probes, and PCR run conditions were described previously. The copy number of HIV-1 late reverse transcription product (LRT) was determined using standard curves obtained by amplification of cloned DNA containing the matched sequences. The copy number of integrated HIV-1 DNA was determined in reference to a standard curve generated by concomitant two-stage PCR amplification of a serial dilution of the standard HeLa HIVR7-Neo cell DNA [59]. Copy numbers of each viral form were normalized with the number of cells obtained by the quantification by PCR of the β-globin gene according to the manufacturer instructions (Roche Applied Science)."}, "[3]": {"test_system": "HIV-1 NL4-3 wt", "type": "cell-based"}, "[4]": {"test_system": "HIV-1 NL4-3", "experiment": "Antiviral assay in MT-4 cells, multiple-round infection, CellTiter-Glo", "type": "cell-based", "description": "MT-4 cells growing exponentially at the density of 10^6/mL were infected with HIV-1 strain NL4-3 at a MOI (multiplicity of infection) of 0.001 for 2 h. The cells were washed with PBS and aliquoted, using 100 μL fresh complete RPMI, into 96-well white plates (Corning) in the presence of different concentrations of compounds."}, "[5]": {"test_system": "HIV-1 mutant IN A128T", "experiment": "Antiretroviral activity on HIV-1 mutant IN A128T", "type": "cell-based"}, "[6]": {"test_system": "NL4-3 RT M41L, D67N, K103N, M184V, L210W, T215Y", "experiment": "Antiviral assay on Multi-drug (NRTI + NNRTI) resistant virus", "type": "cell-based, HIV-1", "settings": "ratio EC50 resistant virus / wt virus; NRTI + NNRTI mutations"}, "[7]": {"test_system": "HIV-1 LAV virions produced by HeLa-LAV cells", "experiment": "Virions produced by compound-treated HeLa-LAV cells: p24 and infectivity", "type": "cell-based"}, "[8]": {"test_system": "VSV-G-pseudotyped NL4-3Δenv-luc", "experiment": "microbe, parasite or virus in culture", "type": "cell-based, HIV-1"}, "[9]": {"test_system": "panel of virus mutants in an NL4-3 background resistant to INSTIs and other classes of ARV drugs", "settings": "EC50 on resistant virus / EC50 on wt"}},
  "note": "Read-outs that look alike come from different tables or passages of the source.",
  "data": [
    {"smiles": "Cc1nc2c(c(-c3ccc4c(c3)CCCO4)c1C(OC(C)(C)C)C(=O)O)CCCC2", "note": "(stereo not drawn) [Mut101, 2-(tert-butoxy)-2-[4-(3,4-dihydro-2H-1-benzopyran-6-yl)-2-methyl-5,6,7,8-tetrahydroquinolin-3-yl]acetic acid]", "values": [
      {"measurement": "EC50 fold change NNRTIs", "setting": "[1]", "result": 1},
      {"measurement": "Integration of the proviral DNA (qPCR)", "setting": "[2]", "result": "inhibited the integration of the proviral DNA"},
      {"measurement": "Production of proviral DNA at reverse transcription (qPCR)", "setting": "[2]", "result": "not the production of proviral DNA at reverse transcription"},
      {"measurement": "Infectivity of NL4-3 wt virus produced in presence of compound", "setting": "[3]", "result": "inactivated"},
      {"measurement": "EC50", "setting": "[4]; Human immunodeficiency virus 1, NL43, MT4, Table 1, read-out: NL4-3 EC50 (MT4 assays)", "result": 540, "unit": "nM"},
      {"measurement": "EC50", "setting": "[4]; Human immunodeficiency virus 1, NL43, MT4, Table 3, mean of two independent experiments, read-out: EC50 NL4-3 WT", "result": 470, "unit": "nM"},
      {"measurement": "EC50", "setting": "[4]; Human immunodeficiency virus 1, NL43, MT4 cells, mean of six independent experiments, read-out: NL4-3 EC50 Multiple-round", "result": "490 ± 40", "unit": "nM"},
      {"measurement": "ARV activity on HIV-1 mutant IN A128T", "setting": "[5]", "result": "full ARV activity"},
      {"measurement": "EC50 fold change Multi-drug", "setting": "[6]", "result": 1},
      {"measurement": "Virucidal effect on free virus released in supernatant", "setting": "[7]", "result": "unable to inactivate free virus"},
      {"measurement": "Amount of p24 produced by treated HeLa-LAV cells", "setting": "[7]; compared with Raltegravir, DMSO or Mut063 treatment", "result": "comparable"},
      {"measurement": "Infectivity of virions from treated HeLa-LAV cells", "setting": "[7]; luciferase assay in TZM cells", "result": "strong virus infectivity defects"},
      {"measurement": "SR/MR ratio", "setting": "[8]", "result": 18},
      {"measurement": "EC50", "setting": "[8]; Human immunodeficiency virus 1, NL43, MT4, read-out: NL4-3 EC50 Single-round", "result": "9000 ± 1500", "unit": "nM"},
      {"measurement": "EC50 fold change (FC) ratio against all resistant viruses", "setting": "[9]", "result": "≤ 1"}
    ]}
  ]
}
